Patent US8268814B2, “Substituted sulfonamide compounds” (Gruenenthal GmbH, priority 2008, dated 2012)

What was measured:
[1] = biological target: T1, B1R receptor of the rat (rB1R) (Rattus norvegicus, UniProt P97583); assay: Functional FLIPR Ca2+ assay on the bradykinin 1 receptor, rat (rB1R CHO K1 cells); format: cell-based; settings: test substance 10 μM; CHO K1 cells transfected with rat B1R gene; agonist Des-Arg9-bradykinin at EC80; % inhibition compared with maximum achievable inhibition; read-out: B1R antagonism, rat [10 μM] % inhibition
T1 construct: expressed in transfected cells; host or cells: CHO K1 cells (Chinese hamster ovary), stably transfected
T1 sequence (P97583 1-337): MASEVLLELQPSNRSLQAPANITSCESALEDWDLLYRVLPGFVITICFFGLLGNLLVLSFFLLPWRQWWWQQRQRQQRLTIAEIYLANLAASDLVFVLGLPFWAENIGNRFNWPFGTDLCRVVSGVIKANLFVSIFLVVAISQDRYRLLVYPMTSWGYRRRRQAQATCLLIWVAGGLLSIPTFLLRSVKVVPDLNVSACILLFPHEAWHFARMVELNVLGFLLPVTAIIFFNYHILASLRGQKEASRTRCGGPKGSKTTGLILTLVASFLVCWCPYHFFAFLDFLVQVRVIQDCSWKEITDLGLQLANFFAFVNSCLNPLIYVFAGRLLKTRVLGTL
In short: (§1)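 Stably transfected CHO K1 cells expressing human or rat B1R, Fluo-4-loaded, Ca2+ influx read by FLIPR (peak fluorescence). Compounds (10 μM for % activation) preincubated 10-20 min, then EC80 agonist added: Lys-Des-Arg9-bradykinin for human, Des-Arg9-bradykinin for rat; % inhibition versus maximal inhibition, IC50 from concentration series.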

[2] = biological target: T2, human B1R receptor (hB1R) (Homo sapiens, UniProt P46663); assay: Functional FLIPR Ca2+ assay on the bradykinin 1 receptor, human (hB1R CHO K1 cells); format: cell-based; settings: test substance 10 μM; CHO K1 cells transfected with human B1R gene; agonist Lys-Des-Arg9-bradykinin at EC80; % inhibition compared with maximum achievable inhibition; read-out: B1R antagonism, human (10 μM] % inhibition
T2 construct: expressed in transfected cells; host or cells: CHO K1 cells (Chinese hamster ovary), stably transfected
T2 sequence (P46663 1-353): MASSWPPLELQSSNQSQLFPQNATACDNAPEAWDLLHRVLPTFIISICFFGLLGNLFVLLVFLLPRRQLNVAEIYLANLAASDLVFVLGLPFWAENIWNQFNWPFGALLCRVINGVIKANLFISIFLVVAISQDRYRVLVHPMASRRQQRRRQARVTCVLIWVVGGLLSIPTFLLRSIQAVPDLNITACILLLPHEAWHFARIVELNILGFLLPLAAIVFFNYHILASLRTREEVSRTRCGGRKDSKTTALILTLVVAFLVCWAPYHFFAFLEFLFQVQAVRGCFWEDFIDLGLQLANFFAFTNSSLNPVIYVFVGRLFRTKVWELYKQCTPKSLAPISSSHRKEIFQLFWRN
In short: as §1

Structure (SMILES) | inhibition at 10 µM [1] [%] | inhibition at 10 µM [2] [%]
COc1cc(C)c(S(=O)(=O)N2c3ccccc3CC[C@H]2COCC(=O)N2CCc3sc(CN4CCCCC4)cc3C2)c(C)c1 [Example 61, 2-[[(2S)-1-[(4-methoxy-2,6-dimethyl-phenyl)sulfonyl]-1,2,3,4-tetrahydro-quinolin-2-yl]-methoxy]-1-[2-(piperidin-1-yl-methyl)-4,5,6,7-tetrahydro-thieno[3,2-c]pyridin-5-yl]-ethanone] | 106 | 100
COc1cc(C)c(S(=O)(=O)N2CCCC[C@H]2COCC(=O)N2CCc3sc(CN4CCCC4)cc3C2)c(C)c1 [Example 62, 2-[[(2S)-1-[(4-methoxy-2,6-dimethyl-phenyl)sulfonyl]-piperidin-2-yl]-methoxy]-1-[2-(pyrrolidin-1-yl-methyl)-4,5,6,7-tetrahydro-thieno[3,2-c]pyridin-5-yl]-ethanone] | 107 | 100
COc1cc(C)c(S(=O)(=O)N2CCC[C@H]2COCC(=O)N2CCc3sc(CN4CCCCC4)cc3C2)c(C)c1 [Example 63, 2-[[(2S)-1-[(4-methoxy-2,6-dimethyl-phenyl)sulfonyl]-pyrrolidin-2-yl]-methoxy]-1-[2-(piperidin-1-yl-methyl)-4,5,6,7-tetrahydro-thieno[3,2-c]pyridin-5-yl]-ethanone] | 106 | 99

Other lines, results leading:

inhibition at 10 µM [1] [%] | inhibition at 10 µM [2] [%] | Structure (SMILES)
102 | 75 | COc1cc(C)c(S(=O)(=O)N2c3ccccc3CC[C@H]2COCC(=O)N2CCc3onc(-c4ccncc4)c3C2)c(C)c1 [Example 125, 2-[[(2S)-1-[(4-Methoxy-2,6-dimethyl-phenyl)sulfonyl]-1,2,3,4-tetrahydro-quinolin-2-yl]-methoxy]-1-(3-pyridin-4-yl-4,5,6,7-tetrahydro-isoxazolo[4,5-c]pyridin-5-yl)-ethanone]
104 | 90 | COc1cc(C)c(S(=O)(=O)N2CCCCC2COCC(=O)N2CCc3onc(CN4CCCCC4)c3C2c2ccccc2)c(C)c1 (stereo not shown) [Example 126, 2-((1-(4-Methoxy-2,6-dimethylphenylsulfonyl)piperidin-2-yl)methoxy)-1-(4-phenyl-3-(piperidin-1-ylmethyl)-6,7-dihydroisoxazolo[4,5-c]pyridin-5(4H)-yl)ethanone]
